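A five-concentration, 48-hour dose response in 96-well plates underlies each endpoint, interpolated linearly between surrounding concentrations. GI50 = concentration required for 50% inhibition of growth. The concentration for full growth arrest is given as TGI.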 *1 amine or outer side, *2 acyl side, *3 side chain or, on linkers, in order; H or OH if unused. Where a SMILES comes first, the peptide text is derived from it. Bridges are numbered along the chain shown (N, C = ends). [ ]: non-standard residue; d: D form. The star is where a group is joined. Phe(3-Me) = Cc1cccc(C[C@H](N)C(=O)O)c1; NH(4-Cl-2-F-phenyl) = Fc1cc(Cl)ccc1N*; Pro(4R-Me) = C[C@H]1CN[C@H](C(=O)O)C1; Propanoyl(3-NMe2) = CN(C)CCC(=O)*; Hyp = O=C(O)[C@@H]1C[C@@H](O)CN1; aThr = C[C@H](O)[C@H](N)C(=O)O; Pip = O=C(O)[C@@H]1CCCCN1; CO = O=C([*:1])[*:2]
What was measured:
Experiment in all cases: NCI tumour cell line growth inhibition, 48 h
NCI-H226 lung = test system: NCI-H226 lung
HL-60(TB) leukemia = test system: HL-60(TB) leukemia
SW-620 colon = test system: SW-620 colon
SK-MEL-28 melanoma = test system: SK-MEL-28 melanoma
HCT-15 colon = test system: HCT-15 colon
TK-10 renal = test system: TK-10 renal
HOP-62 NSCLC = test system: HOP-62 NSCLC
SF-295 CNS = test system: SF-295 CNS
A498 renal = test system: A498 renal
CAKI-1 renal = test system: CAKI-1 renal

| SMILES | TGI (NCI-H226 lung) | TGI (HL-60(TB) leukemia) | TGI (SW-620 colon) | TGI (SK-MEL-28 melanoma) | TGI (HCT-15 colon) | TGI (TK-10 renal) | TGI (HOP-62 NSCLC) | TGI (SF-295 CNS) | TGI (A498 renal) | TGI (CAKI-1 renal) | GI50 (NCI-H226 lung) | GI50 (HL-60(TB) leukemia) | GI50 (SW-620 colon) | GI50 (SK-MEL-28 melanoma) | GI50 (HCT-15 colon) | GI50 (TK-10 renal) | GI50 (HOP-62 NSCLC) | GI50 (SF-295 CNS) | GI50 (A498 renal) | GI50 (CAKI-1 renal) |
| --- | --- | --- | --- | --- | --- | --- | --- | --- | --- | --- | --- | --- | --- | --- | --- | --- | --- | --- | --- | --- |
| O=C1c2ccccc2C(=O)c2c1ccc1c2OCO1 | > 100 µM | > 100 µM | > 100 µM | > 100 µM | > 100 µM | > 100 µM | > 100 µM | > 100 µM | > 100 µM | > 100 µM |  |  |  |  |  |  |  |  |  |  |
| Cc1ccc(S(=O)(=O)n2cc(-c3nnnn3-c3ccc(Cl)cc3)c(=O)c3ccccc32)cc1 | > 100 µM | 31 µM | > 100 µM | > 100 µM | > 100 µM | > 100 µM | > 100 µM | > 100 µM | > 100 µM | > 100 µM | > 100 µM | 12.9 µM | > 100 µM | > 100 µM | > 100 µM | > 100 µM | 73.6 µM | 52.9 µM | 77.3 µM | > 100 µM |
| CC(=O)Nc1sc2c(c1-c1nc3ccccc3s1)CNC2 | 16.7 µM | 11.6 µM | 48.3 µM | 9.93 µM | 8.89 µM | 24.4 µM | 15.8 µM | 9.93 µM | 14.9 µM | > 50 µM | 3.27 µM | 2.84 µM | 2.33 µM | 2.94 µM | 1.56 µM | 4.74 µM | 2.38 µM | 2.25 µM | 7.4 µM | 2.05 µM |
| COc1cc(OC)cc(-c2cncn2-c2ccc(-c3nc4cc(OC)c(OC)c(OC)c4s3)cc2)c1 | > 100 µM | > 100 µM | > 100 µM | > 100 µM | > 100 µM | > 100 µM | > 100 µM | 52.9 µM | > 100 µM | > 100 µM | 21.7 µM | 2.43 µM | 13.7 µM | 31.6 µM | 5.72 µM | 26.4 µM | 26.4 µM | 3.64 µM | > 100 µM | 3.79 µM |
| Cc1cccc(C[C@H](NC(=O)Nc2ccc(Cl)cc2F)C(=O)N[C@@H]2C(=O)N3C[C@H](OC(=O)CCN(C)C)C[C@H]3C(=O)N3CCCC[C@H]3C(=O)N[C@@H](C)C(=O)N3C[C@H](C)C[C@H]3C(=O)O[C@H]2C)c1 ({NH(4-Cl-2-F-phenyl)-CO}-[Phe(3-Me)][aThr][Hyp](Propanoyl(3-NMe2))[Pip]A[Pro(4R-Me)]; ester 2-C) | 2.19 µM | 1.9 µM | 2.94 µM | 2.1 µM | 4.34 µM | 10.6 µM | 7.24 µM | 2.15 µM | 3.29 µM | 3.59 µM | 0.45 µM | 0.354 µM | 0.6 µM | 0.706 µM | 1.98 µM | 2.16 µM | 0.536 µM | 0.426 µM | 0.43 µM | 0.978 µM |
| CN1CCCCC1CCN1c2ccccc2Sc2ccc(S(C)=O)cc21 (centres undefined) | > 100 µM | > 100 µM | > 100 µM | > 100 µM | > 100 µM | > 100 µM | > 100 µM | > 100 µM | > 100 µM | > 100 µM |  |  |  |  |  |  |  |  |  |  |
| COc1cc(-c2cc(CCC(=O)Nc3ccccc3[N+](=O)[O-])n(-c3ccc([N+](=O)[O-])cc3[N+](=O)[O-])n2)ccc1O | > 100 µM | > 100 µM | > 100 µM | > 100 µM | > 100 µM | > 100 µM | > 100 µM | > 10 µM | > 100 µM | > 100 µM | > 100 µM | > 100 µM | > 100 µM | > 100 µM | > 10 µM | > 100 µM | > 100 µM |  | > 100 µM | > 100 µM |
| Cc1nc2cc(N)c(Cl)cc2[nH]1 | > 100 µM | > 100 µM | > 100 µM | > 100 µM | > 100 µM | > 100 µM | > 100 µM | > 100 µM | > 100 µM | > 100 µM |  |  |  |  |  |  |  |  |  |  |
| CC1=C(c2cc(C(=O)Nc3nccs3)nc(NC#N)n2)Sc2ccccc2N1 | > 100 µM | > 100 µM | > 100 µM | > 100 µM | > 100 µM | > 100 µM | > 100 µM | > 100 µM | > 100 µM | > 100 µM |  |  |  |  |  |  |  |  |  |  |
| CN1CCCN(C(c2ccccc2)c2ccc(Br)cc2)CC1 (centres undefined) | 20.8 µM | 34.1 µM | 10.6 µM | 5.97 µM | 14 µM | 22.7 µM | 19.3 µM | 14.5 µM | 17.9 µM | 13.4 µM | 7.23 µM | 3.52 µM | 2.9 µM | 2.43 µM | 3.49 µM | 10.4 µM | 6.52 µM | 3.52 µM | 5.86 µM | 3.24 µM |
| O=C(O)/C=C\C(=O)Nc1ccc2c(c1)C(=O)c1cc(F)ccc1-2 | > 100 µM | > 100 µM | > 100 µM | > 100 µM | > 100 µM | > 100 µM | > 100 µM | > 100 µM | > 100 µM | > 100 µM |  |  |  |  |  |  |  |  |  |  |
| COc1cc2c3c(c4c5ccccc5[nH]c4c2c(OC)c1OC)C(=O)N(CCN1CCCCC1)C3=O | 4.57 µM | > 41 µM | 2.56 µM | 3.32 µM | 2.07 µM | 2.72 µM | 2.79 µM | 3.13 µM | 4.87 µM | 2.3 µM | 1.08 µM | 8.15 µM | 0.474 µM | 1.74 µM | 0.498 µM | 1.3 µM | 0.721 µM | 1.25 µM | 1.35 µM | 0.811 µM |
| CC1(C)OC(=O)C(=C2CC(c3ccccc3)c3ccccc32)C(=O)O1 (centres undefined) | > 100 µM | > 100 µM | > 100 µM | > 100 µM | > 100 µM | > 100 µM | > 100 µM | > 100 µM | > 100 µM | > 100 µM |  |  |  |  |  |  |  |  |  |  |
| COc1cc(NC(N)=NCCC(C)(C)c2ccc(C(F)(F)F)cc2)ncc1C#N | 3.36 µM | 0.868 µM | 4.14 µM | 3.52 µM | 2.9 µM | 2.88 µM | 3.25 µM | 3.06 µM | 3.69 µM | 2.74 µM | 1.6 µM | 0.278 µM | 2.01 µM | 2.01 µM | 1.53 µM | 1.51 µM | 1.78 µM | 1.6 µM | 1.88 µM | 1.42 µM |
| CCC/C(=N\NC(=O)c1cc2ccccc2cc1O)C(CC)C(=O)CCC(=O)N(Cc1ccccc1)Cc1ccccc1 (centres undefined) | > 100 µM | 40.1 µM | > 100 µM | > 100 µM | > 100 µM | > 100 µM | > 100 µM | > 100 µM | > 100 µM | > 100 µM |  |  |  |  |  |  |  |  |  |  |
| COC(=O)NN1C(C)=C(C(=O)OC)C2(CCOC2=O)C1(C)O (centres undefined) | > 100 µM | > 100 µM | > 100 µM | > 100 µM | > 100 µM | > 100 µM | > 100 µM | > 100 µM | > 100 µM | > 100 µM |  |  |  |  |  |  |  |  |  |  |
| CCCN1CCN(c2ccc3nc(-c4ccc5nc(-c6ccc(OCC)c(OCC)c6)[nH]c5c4)[nH]c3c2)CC1 | 2.06 µM | 2.74 µM | 0.808 µM | 2.19 µM | 10.3 µM | 4.13 µM | 3.2 µM | 2.03 µM | 1.82 µM | 3.28 µM | 0.495 µM | 0.339 µM | 0.207 µM | 0.755 µM | 1.87 µM | 1.3 µM | 0.956 µM | 0.391 µM | 0.538 µM | 1.02 µM |
| Nc1nc2c(c3cnccc13)C(c1cccc(Cl)c1)Cc1cnccc1-2 (centres undefined) | 14.7 µM | 5.27 µM | 17.6 µM | 20.6 µM | 7.93 µM | 13.7 µM | 16.3 µM | 0.914 µM | 0.852 µM | 15.5 µM | 0.673 µM | 0.278 µM | 0.455 µM | 2.6 µM | 0.388 µM | 0.696 µM | 0.441 µM | 0.273 µM | 0.275 µM | 0.434 µM |

— PubChem BioAssay (NCI)
